Reference: ChEMBL document CHEMBL3576844, “Melanin-concentrating hormone receptor 1 antagonists for treatment of obesity” (ACS Med Chem Lett, 2015)

Legend:
[1] = target: Melanin-concentrating hormone receptor 1 (Homo sapiens) (UniProt Q99705); assay: Displacement of [125I]-MCH (4 to 19) from human MCH1 receptor expressed in CHO cell membranes at 0.1 uM after 1 hr by liquid scintillation counting analysis relative to control
[2] = target: Melanin-concentrating hormone receptor 1 (Homo sapiens) (UniProt Q99705); assay: Antagonist activity at human MCH1 receptor expressed in CHO cell membranes assessed as inhibition of MCH (4 to 19)-stimulated calcium mobilization at 0.1 uM measured every 2 secs by fluorometric analysis relative to control; assay type: functional, cell-based
hERG (KCNH2) = hERG (KCNH2) (Homo sapiens, UniProt Q12809); assay: Inhibition of human ERG expressed in CHO cells at 10 uM after 5 mins by IonWorks assay relative to control; details: CHO cells expressing human ERG
hERG (KCNH2), sequence (Q12809 whole entry): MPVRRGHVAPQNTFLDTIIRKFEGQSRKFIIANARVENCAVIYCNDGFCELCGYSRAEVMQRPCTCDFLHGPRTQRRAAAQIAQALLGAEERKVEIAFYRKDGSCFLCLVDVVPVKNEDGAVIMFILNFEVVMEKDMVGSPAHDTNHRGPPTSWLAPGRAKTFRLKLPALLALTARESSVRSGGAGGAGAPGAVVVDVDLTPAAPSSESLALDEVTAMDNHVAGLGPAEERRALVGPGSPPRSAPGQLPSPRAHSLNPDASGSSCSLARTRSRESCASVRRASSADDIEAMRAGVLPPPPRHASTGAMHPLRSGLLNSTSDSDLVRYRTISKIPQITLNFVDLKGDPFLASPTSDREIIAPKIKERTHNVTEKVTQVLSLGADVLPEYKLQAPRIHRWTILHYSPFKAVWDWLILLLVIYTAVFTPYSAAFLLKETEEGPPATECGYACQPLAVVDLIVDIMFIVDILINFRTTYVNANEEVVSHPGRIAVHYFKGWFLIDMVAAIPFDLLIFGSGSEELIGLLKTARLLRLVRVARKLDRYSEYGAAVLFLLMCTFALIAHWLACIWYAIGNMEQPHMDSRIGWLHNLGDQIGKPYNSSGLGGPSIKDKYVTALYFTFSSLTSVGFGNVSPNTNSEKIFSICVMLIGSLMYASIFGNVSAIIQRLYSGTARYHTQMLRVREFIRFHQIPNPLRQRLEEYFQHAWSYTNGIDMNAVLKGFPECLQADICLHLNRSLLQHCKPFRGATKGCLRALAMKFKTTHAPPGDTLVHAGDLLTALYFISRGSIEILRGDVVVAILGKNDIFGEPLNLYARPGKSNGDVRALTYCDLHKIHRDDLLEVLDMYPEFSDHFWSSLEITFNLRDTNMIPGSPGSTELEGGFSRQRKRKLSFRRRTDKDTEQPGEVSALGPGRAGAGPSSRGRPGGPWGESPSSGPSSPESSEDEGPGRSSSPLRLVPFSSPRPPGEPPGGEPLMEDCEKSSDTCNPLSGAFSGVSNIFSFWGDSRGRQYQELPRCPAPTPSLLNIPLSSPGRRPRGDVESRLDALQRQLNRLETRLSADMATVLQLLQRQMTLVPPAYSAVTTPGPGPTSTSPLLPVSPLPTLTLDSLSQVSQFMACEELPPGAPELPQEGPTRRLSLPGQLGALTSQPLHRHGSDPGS

Melanin-concentrating hormone receptor 1 (Homo sapiens), sequence (Q99705 whole entry): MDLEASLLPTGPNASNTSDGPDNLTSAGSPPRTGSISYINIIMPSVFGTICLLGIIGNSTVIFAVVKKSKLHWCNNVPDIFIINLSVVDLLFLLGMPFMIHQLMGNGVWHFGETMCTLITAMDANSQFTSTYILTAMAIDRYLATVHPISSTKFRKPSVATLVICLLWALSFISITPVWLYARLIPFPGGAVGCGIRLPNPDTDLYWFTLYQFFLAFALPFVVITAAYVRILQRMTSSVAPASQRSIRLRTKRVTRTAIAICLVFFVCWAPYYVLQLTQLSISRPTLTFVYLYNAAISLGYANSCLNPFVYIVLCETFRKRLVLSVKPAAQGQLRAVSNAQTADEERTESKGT

| inhibition [1] | inhibition [2] | SMILES | inhibition at 5 min, 10 µM (hERG (KCNH2)) |
| --- | --- | --- | --- |
| 72% | 83% | Cc1c2cc(-n3ccc(OCc4ccc(Cl)cc4)cc3=O)ccc2nn1C | 22.1% |
| 50% | 78% | Cc1c2cc(-n3ccc(OCc4csc(C(F)(F)F)n4)cc3=O)ccc2nn1C1CC1 |  |
| 77% | 55% | Cc1c2cc(-n3ccc(OCc4csc(C(F)(F)F)c4)cc3=O)ccc2nn1C1CC1 |  |
| 72% | 70% | Cc1c2cc(-n3ccc(OCc4ccc(F)cc4)cc3=O)ccc2nn1C1CC1 |  |
